In patent US20120214811A1, “RAF INHIBITOR COMPOUNDS AND METHODS OF USE THEREOF” (priority 2009, published 2012):

These compounds were tested against T1, V600E full-length B-Raf (Homo sapiens, UniProt P15056, V600E) (assay: B-Raf IC50 assay (incorporation of radio labeled phosphate from [γ-33P]ATP into FSBA-modified wild-type MEK)). Conditions: Example A assay; 4 μM ATP, 20 nM V600E full-length B-Raf, 60-minute incubation at 22° C.; read-out: BRAF V600E IC50.
T1 construct: 1 μM FSBA-MEK and 20 nM V600E full-length B-Raf; made in house; host or cells: Sf9 insect cells (baculovirus)
Format: biochemical
From the text: Determining the activity of Raf in the sample is possible by a number of direct and indirect detection methods (US 2004/0082014). Activity of human recombinant B-Raf protein may be assessed in vitro by assay of the incorporation of radio labeled phosphate to recombinant MAP kinase (MEK), a known physiologic substrate of B-Raf, according to US 2004/0127496 and WO 03/022840. The activity/inhibition of V600E full-length B-Raf was estimated by measuring the incorporation of radio labeled phosphate from [γ-^33]ATP into FSBA-modified wild-type MEK (see Example A).
Activity of human recombinant B-Raf protein may be assessed in vitro by assay of the incorporation of radio labeled phosphate to recombinant MAP kinase (MEK), a known physiologic substrate of B-Raf, according to US 2004/0127496 and WO 03/022840. Catalytically active human recombinant B-Raf protein is obtained by purification from sf9 insect cells infected with a human B-Raf recombinant baculovirus expression vector.
The activity/inhibition of V600E full-length B-Raf was estimated by measuring the incorporation of radio labeled phosphate from [γ-^33P]ATP into FSBA-modified wild-type MEK. The 30-μL assay mixtures contained 25 mM Na Pipes, pH 7.2, 100 mM KCl, 10 mM MgCl2, 5 mM β-glycerophosphate, 100 μM Na Vanadate, 4 μM ATP, 500 nCi [γ-^33P]ATP, 1 μM FSBA-MEK and 20 nM V600E full-length B-Raf. Incubations were carried out at 22° C. in a Costar 3365 plate (Corning). Prior to the assay, the B-Raf and FSBA-MEK were preincubated together in assay buffer at 1.5× (20 μL of 30 nM and 1.5 μM, respectively) for 15 minutes, and the assay was initiated by the addition of 10 μL of 10 μM ATP. Following the 60-minute incubation, the assay mixtures were quenched by the addition of 100 μL of 25% TCA, the plate was mixed on a rotary shaker for 1 minute, and the product was captured on a Perkin-Elmer GF/B filter plate using a Tomtec Mach III Harvester. After sealing the bottom of the plate, 35 μL of Bio-Safe II (Research Products International) scintillation cocktail were added to each well and the plate was top-sealed and counted in a Topcount NXT (Packard).

T1 sequence (P15056 whole entry V600E): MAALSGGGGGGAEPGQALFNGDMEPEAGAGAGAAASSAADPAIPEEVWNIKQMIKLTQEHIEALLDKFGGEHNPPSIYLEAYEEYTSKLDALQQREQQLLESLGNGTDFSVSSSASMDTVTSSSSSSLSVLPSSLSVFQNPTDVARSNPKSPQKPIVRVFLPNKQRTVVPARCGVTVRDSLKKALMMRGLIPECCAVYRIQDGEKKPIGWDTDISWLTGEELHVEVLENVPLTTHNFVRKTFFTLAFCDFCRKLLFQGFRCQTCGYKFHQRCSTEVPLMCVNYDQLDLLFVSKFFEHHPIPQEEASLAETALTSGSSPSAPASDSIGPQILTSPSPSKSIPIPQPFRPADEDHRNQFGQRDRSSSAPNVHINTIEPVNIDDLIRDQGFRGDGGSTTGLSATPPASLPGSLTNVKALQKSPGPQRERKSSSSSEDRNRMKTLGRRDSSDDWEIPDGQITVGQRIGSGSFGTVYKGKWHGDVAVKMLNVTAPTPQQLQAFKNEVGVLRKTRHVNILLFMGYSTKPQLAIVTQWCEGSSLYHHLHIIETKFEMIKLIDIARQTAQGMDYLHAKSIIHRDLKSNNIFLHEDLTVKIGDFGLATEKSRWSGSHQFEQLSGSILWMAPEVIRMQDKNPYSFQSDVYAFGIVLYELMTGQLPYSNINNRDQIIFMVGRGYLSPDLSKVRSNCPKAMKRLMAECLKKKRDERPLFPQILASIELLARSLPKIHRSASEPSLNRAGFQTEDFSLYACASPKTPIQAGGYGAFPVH

Row | SMILES | IC50
1 | CCCS(=O)(=O)Nc1ccc(F)c(NC(=O)Nc2cc(N)ncn2)c1F [Example 2, N-(3-(3-(6-aminopyrimidin-4-yl)ureido)-2,4-difluorophenyl)propane-1-sulfonamide] | 0.142 µM
2 | CCCS(=O)(=O)Nc1ccc(F)c(NC(=O)Nc2cc(NC(C)C)ncn2)c1F [Example 4, N-(2,4-difluoro-3-(3-(6-(isopropylamino)pyrimidin-4-yl)ureido)phenyl)propane-1-sulfonamide] | 0.165 µM
3 | CCCS(=O)(=O)Nc1ccc(F)c(NC(=O)Nc2cc(NCCO)ncn2)c1F [Example 5, N-(2,4-difluoro-3-(3-(6-(2-hydroxyethylamino)pyrimidin-4-yl)ureido)phenyl)propane-1-sulfonamide] | 0.0635 µM
4 | CCCS(=O)(=O)Nc1ccc(F)c(NC(=O)Nc2cc(NCCN3CCOCC3)ncn2)c1F [Example 6, N-(2,4-difluoro-3-(3-(6-(2-morpholinoethylamino)pyrimidin-4-yl)ureido)phenyl)propane-1-sulfonamide] | 0.535 µM
5 | CCCS(=O)(=O)Nc1ccc(F)c(NC(=O)Nc2ccncn2)c1F [Example 7, Propane-1-sulfonic acid [2,4-difluoro-3-(3-pyrimidin-4-yl-ureido)-phenyl]-amide] | 1.39 µM
6 | CCCS(=O)(=O)Nc1ccc(F)c(NC(=O)N(C)c2ccncn2)c1F [Example 11, Propane-1-sulfonic acid [2,4-difluoro-3-(3-methyl-3-pyrimidin-4-yl-ureido)-phenyl]-amide] | 1.23 µM
7 | CCCS(=O)(=O)Nc1ccc(F)c(NC(=O)N(C)c2cc(N)ncn2)c1F [Example 15, N-(3-(3-(6-aminopyrimidin-4-yl)-3-methylureido)-2,4-difluorophenyl)propane-1-sulfonamide] | 0.0833 µM
8 | CCCS(=O)(=O)Nc1ccc(F)c(NC(=O)N(C)c2cc(NC3CCOC3)ncn2)c1F (stereo not shown) [Example 19, N-(2,4-difluoro-3-(3-methyl-3-(6-(tetrahydrofuran-3-ylamino)pyrimidin-4-yl)ureido)phenyl)propane-1-sulfonamide] | 0.283 µM
9 | CCCS(=O)(=O)Nc1ccc(F)c(NC(=O)N(C)c2cc(NC(C)C)ncn2)c1F [Example 21, N-(2,4-difluoro-3-(3-(6-(isopropylamino)pyrimidin-4-yl)-3-methylureido)phenyl) propane-1-sulfonamide] | 0.133 µM
10 | CCCS(=O)(=O)Nc1ccc(F)c(NC(=O)N(C)c2cc(NCCN3CCOCC3)ncn2)c1F [Example 22, N-(2,4-difluoro-3-(3-methyl-3-(6-(2 morpholinoethylamino)pyrimidin-4-yl)ureido)phenyl)propane-1-sulfonamide] | 0.616 µM
11 | CCCS(=O)(=O)Nc1ccc(F)c(NC(=O)Nc2ncncc2-c2ccc(Cl)cc2)c1F [Example 25] | 0.288 µM
12 | CCCS(=O)(=O)Nc1ccc(F)c(NC(=O)Nc2ncnc(NC)n2)c1F [Example 26, N-(2,4-Difluoro-3-(3-(4-(methylamino)-1,3,5-triazin-2-yl)ureido)phenyl)propane-1-sulfonamide] | 0.235 µM

The next lines start with the values.

Row | IC50 | SMILES
13 | 0.028 µM | CCCS(=O)(=O)Nc1ccc(F)c(NC(=O)Nc2cc(NCC)ncn2)c1F [Example 1, Propane-1-sulfonic acid {3-[3-(6-ethylamino-pyrimidin-4-yl)-ureido]-2,4-difluoro-phenyl}-amide]
14 | 0.0312 µM | CCCS(=O)(=O)Nc1ccc(F)c(NC(=O)Nc2cc(NC)ncn2)c1F [Example 3, N-(2,4-difluoro-3-(3-(6-(methylamino)pyrimidin-4-yl)ureido)phenyl)propane-1-sulfonamide]
15 | 0.0198 µM | CCCS(=O)(=O)Nc1ccc(F)c(NC(=O)Nc2cc(NC)ncn2)c1Cl [Example 8, Propane-1-sulfonic acid {2-chloro-4-fluoro-3-[3-(6-methylamino-pyrimidin-4-yl)-ureido]-phenyl}-amide]
16 | 0.0089 µM | CCCS(=O)(=O)Nc1ccc(Cl)c(NC(=O)Nc2cc(NC)ncn2)c1F [Example 9, N-4-Chloro-2-fluoro-3-(3-((6-(methylamino)pyrimidin-4-yl)ureido)phenyl)propane-1-sulfonamide]
17 | 0.0192 µM | CCCS(=O)(=O)Nc1ccc(Cl)c(NC(=O)Nc2cc(NCc3ccccc3)ncn2)c1F [Example 10, N-(3-(3-(6-(Benzylamino)pyrimidin-4-yl)ureido)-4-chloro-2-fluorophenyl)propane-1-sulfonamide]
18 | 0.0591 µM | CCCS(=O)(=O)Nc1ccc(F)c(NC(=O)N(C)c2cc(Nc3ccn(C)n3)ncn2)c1F [Example 12, Propane-1-sulfonic acid (2,4-difluoro-3-{3-methyl-3-[6-(1-methyl-1H-pyrazol-3-ylamino)-pyrimidin-4-yl]-ureido}-phenyl)-amide]
19 | 0.0218 µM | CCCS(=O)(=O)Nc1ccc(F)c(NC(=O)N(C)c2cc(NC3CC3)ncn2)c1F [Example 13, N-(3-(3-(6-(cyclopropylamino)pyrimidin-4-yl)-3-methylureido)-2,4-difluorophenyl)propane-1-sulfonamide]
20 | 0.0256 µM | CCCS(=O)(=O)Nc1ccc(F)c(NC(=O)N(C)c2cc(NCC)ncn2)c1F [Example 14, N-(3-(3-(6-(ethylamino)pyrimidin-4-yl)-3-methylureido)-2,4-difluorophenyl)propane-1-sulfonamide]
21 | 0.121 µM | CCCS(=O)(=O)Nc1ccc(F)c(NC(=O)N(C)c2cc(NCCO)ncn2)c1F [Example 16, N-(2,4-difluoro-3-(3-(6-(2-hydroxyethylamino)pyrimidin-4-yl)-3-methylureido)phenyl) propane-1-sulfonamide]
22 | 0.0846 µM | CCCS(=O)(=O)Nc1ccc(F)c(NC(=O)N(C)c2cc(NC)ncn2)c1F [Example 17, N-(2,4-difluoro-3-(3-methyl-3-(6-(methylamino)pyrimidin-4-yl)ureido)phenyl)propane-1-sulfonamide]
23 | 0.0836 µM | CCCS(=O)(=O)Nc1ccc(F)c(NC(=O)N(C)c2cc(NC3CCC3)ncn2)c1F [Example 18, N-(3-(3-(6-(cyclobutylamino)pyrimidin-4-yl)-3-methylureido)-2,4-difluorophenyl)propane-1-sulfonamide]
24 | 0.0334 µM | CCCS(=O)(=O)Nc1ccc(F)c(NC(=O)N(C)c2cc(NN)ncn2)c1F [Example 20, N-(2,4-difluoro-3-(3-(6-hydrazinylpyrimidin-4-yl)-3-methylureido)phenyl) propane-1-sulfonamide]
25 | 0.0134 µM | CCCS(=O)(=O)Nc1ccc(F)c(NC(=O)Nc2ncnc(Nc3ccc(F)cc3)n2)c1F [Example 23, N-(2,4-Difluoro-3-(3-(4-(4-fluorophenylamino)-1,3,5-triazin-2-yl)ureido)phenyl)propane-1-sulfonamide]
26 | 0.122 µM | CCCS(=O)(=O)Nc1ccc(F)c(NC(=O)Nc2ncncn2)c1F [Example 24, N-(3-(3-1,3,5-Triazin-2-ylureido)-2,4-difluorophenyl)propane-1-sulfonamide]

Each compound was assayed on basal ERK1/2 phosphorylation (assay: Cellular ERK 1/2 phosphorylation assay in Malme-3M cells). Conditions: Homo sapiens, 1 hour incubation, pERK signal normalized to total ERK, read-out: IC50, inhibition of basal ERK1/2 phosphorylation.
Format: cell-based
Procedure: Inhibition of basal ERK1/2 phosphorylation was determined by the following in vitro […], which comprises incubating cells with a compound of Formula II for 1 hour and quantifying the fluorescent pERK signal on fixed cells and normalizing to total ERK signal.
Materials and Methods: Malme-3M cells were obtained from ATCC and grown in RPMI-1640 supplemented with 10% fetal bovine serum. Cells were plated in 96-well plates at 24,000 cells/well and allowed to attach for 16-20 hours at 37° C., 5% CO2. The media was removed, and DMSO-diluted compounds were added in RPMI-1640 at a final concentration of 1% DMSO. The cells were incubated with the compounds for 1 hour at 37° C., 5% CO2. The cells were washed with PBS and fixed in 3.7% formaldehyde in PBS for 15 minutes. This was followed by washing in PBS/0.05% Tween20 and permeabilizing in −20° C. 100% MeOH for 15 minutes. Cells were washed in PBS/0.05% Tween20 then blocked in Odyssey blocking buffer (LI-COR Biosciences) for 1 hour. Antibodies to phosphorylated ERK (1:400, Cell Signaling #9106, monoclonal) and total ERK (1:400, Santa Cruz Biotechnology #sc-94, polyclonal) were added to the cells and incubated 16-20 hours at 4° C. […] Cells were then washed and analyzed for fluorescence at both wavelengths using the Odyssey Infrared Imaging System (LI-COR Biosciences). […]

Row | SMILES | IC50
27 | CCCS(=O)(=O)Nc1ccc(F)c(NC(=O)Nc2cc(N)ncn2)c1F [Example 2, N-(3-(3-(6-aminopyrimidin-4-yl)ureido)-2,4-difluorophenyl)propane-1-sulfonamide] | ~0.438 µM
28 | CCCS(=O)(=O)Nc1ccc(F)c(NC(=O)Nc2cc(NC)ncn2)c1Cl [Example 8, Propane-1-sulfonic acid {2-chloro-4-fluoro-3-[3-(6-methylamino-pyrimidin-4-yl)-ureido]-phenyl}-amide] | ~0.153 µM
